Measured values: patent US9084770B2, “Modulation of insulin like growth factor I receptor expression in cancer” (Antisense Therapeutics, Ltd., priority 2008, dated 2015)
Read-outs that look alike come from different tables or passages of the source.

Columns and labels:
human IGF-IR mRNA = assay: Antisense inhibition of human IGF-IR mRNA levels by quantitative RT-PCR (Table 1); type: cell-based; design: %INHIB (human IGF-IR mRNA levels): concentration or dose not given beside the values; conditions: quantitative RT-PCR; averages from 3 experiments
Ptx-R PC3 cells = assay: Growth of Paclitaxel resistant Ptx-R PC3 cells with chemotherapeutic agents; type: cell-based, human; conditions: read-out: IC50 (cell growth)
Excerpt: (§1) PC3 cells cultured in vitro were selected for resistance to Paclitaxel (Ptx-R).

PC3 cells [1] = assay: Growth of PC3 cells with chemotherapeutic agents; type: cell-based, human; conditions: read-out: IC50 (cell growth)
Excerpt: as §1

PC3 cells [2] = assay: PC3 viable cells and apoptosis after transfection plus Paclitaxel; conditions: Homo sapiens, PC-3, 72 h, read-out: reduction of viable cell count
Protocol: PC3 cells cultured in vitro were transfected at concentrations of IGF-IR antisense oligonucleotide (ATL1101) or control oligodeoxynucleotide (ISIS 306064) ranging from 12.5 nM to 50 nM or oligofectamine control once per day on two sequential days. After the 2nd transfection, the PC3 cells were treated with concentrations of between 0.1 to 50 nM Paclitaxel. The number of viable cells remaining were determined 72 hours after Paclitaxel treatment.

[3] = Homo sapiens, PC-3, standard culture conditions

Row | IC50 (Ptx-R PC3 cells; [3]) [nM] | IC50 (PC3 cells [1]; [3]) [nM] | Compound | %INHIB (human IGF-IR mRNA levels) (human IGF-IR mRNA) [%] | further results
1 |  |  | 323768 (antisense GGAGTTTAAAGGACAGTGCC; listed as DNA, chemistry not fully specified) [compound 323768] | 59 | 
2 |  |  | 323769 (antisense CATCACTGACCTCTTTCTAT; listed as DNA, chemistry not fully specified) [compound 323769] | 0 | 
3 |  |  | N.N.[Cl][Pt][Cl] [Cisplatin] |  | IC50 (Ptx-R PC3 cells; standard culture conditions): 24.7 nM; IC50 (PC3 cells [1]; standard culture conditions): 10 nM
4 | 10 | 0.827 | CC(=O)O[C@@]12CO[C@@H]1C[C@H](O)[C@@]1(C)C(=O)[C@H](O)C3=C(C)[C@@H](OC(=O)[C@H](O)[C@@H](NC(=O)OC(C)(C)C)c4ccccc4)C[C@@](O)([C@@H](OC(=O)c4ccccc4)[C@H]21)C3(C)C [Docataxel] |  | 
5 | 50.3 | 2.56 | CC(=O)O[C@H]1C(=O)[C@@]2(C)[C@H]([C@H](OC(=O)c3ccccc3)[C@]3(O)C[C@H](OC(=O)[C@H](O)[C@@H](NC(=O)c4ccccc4)c4ccccc4)C(C)=C1C3(C)C)[C@]1(OC(C)=O)CO[C@@H]1C[C@@H]2O [Paclitaxel] |  | cytotoxicity at 0.0001 µM (PC3 cells [2]): ~5%

Row | Compound | IC50 (Ptx-R PC3 cells; [3]) [nM] | IC50 (PC3 cells [1]; [3]) [nM] | %INHIB (human IGF-IR mRNA levels) (human IGF-IR mRNA) [%] | further results
6 | O=C1c2c(O)ccc(O)c2C(=O)c2c(NCCNCCO)ccc(NCCNCCO)c21 [Mitoxantrone] | 376 | 8.8 |  | 
